Source: patent US12338220B2, “Antiviral pyrazolopiridinone compounds” (Novartis AG, priority 2019, dated 2025)
pEC50, pIC50: −log10 of the molar value. Like-named read-outs stand apart in the source and are kept apart here.

What was measured:
CMV = test: microbe, parasite or virus in culture; format: cell-based
[1] = test system: KOS strain of HSV-1 virus; test: HSV-1 qPCR assay; conditions: Human alphaherpesvirus 1, 24 h
CMV-polymerase = CMV-polymerase (Human cytomegalovirus (strain AD169) (HHV-5) (Human herpesvirus 5), UniProt P08546); test: biochemical; conditions: read-out: CMV-polymerase Biochemical IC50
VZV Ellen strain = test: VZV qPCR assay; conditions: Human alphaherpesvirus 3, MRC5, 48 h, read-out: Cellular activity against VZV (EC50)
HSV-polymerase = HSV-polymerase (Human herpesvirus 1 (strain 17) (HHV-1) (Human herpes simplex virus 1), UniProt P04293); test: biochemical
[2] = test system: HCMV-Rluc virus (AD169 pp28-hRluc rUL131); test: CMV Luciferase Assay of Compounds 243-262 in ARPE-19 cells; format: cell-based; conditions: read-out: CMV-Luc Cellular EC50 in ARPE-19
Description: CMV Luciferase Assay of Compounds 243-262.
Compounds 243-262 were tested in a luminescence assay as follows.
ARPE-19 cells were maintained in growth medium (DMEM/F12 Glutamax+10 fetal bovine serum (FBS)+PenStrep) and, before reaching full confluence, were transferred to a centrifuge tube and spun for 5 minutes at 1000 rpm. The cells were resuspended in assay medium (DMEM/F12 Glutamax+2% FBS+PenStrep) and counted. Cell density was adjusted to one million cells per milliliter and infected with HCMV-Rluc virus (AD169 pp28-hRluc rUL131; MOI 0.6) in a 50 ml conical tube for 2 hours while shaking. After dilution of the infectious suspension ten-fold (to 100,000 cells per milliliter), 8000 cells are directly plated in 384-well plates pre-spotted with the compound to be tested. The cells were incubated for 72 hours at 37 degrees Celsius. Cells were then placed at room temperature and allowed to equilibrate for 20 minutes before addition of the Renilla-Glo (Promega) reagent. After a 10-minute incubation at room temperature, luminescence was measured on a microplate reader.

[3] = Human betaherpesvirus 5, 72 h, read-out: CMV-Luc Cellular EC50, NN-NHDF cells, MOI 1, 72 hrs
[4] = Human betaherpesvirus 5, read-out: Cellular activity against CMV (EC50), Table 18
[5] = read-out: Cellular activity against HSV-1 (EC50), NN-NHDF cells, MOI 0.01, 24 hrs, qPCR
[6] = Human betaherpesvirus 5, AD169, ARPE-19, 72 h

Question: `Cn1nc(C(=O)NCc2ccc(Cl)cc2)c2c1C(=O)N(CC1(S(=O)(=O)C(C)(C)C(O)CN)CC1)CC2` (single isomer, unassigned) [Example 200, (R)- or (S)-6-((1-((4-Amino-3-hydroxy-2-methylbutan-2-yl)sulfonyl)cyclopropyl)methyl)-N-(4-chlorobenzyl)-1-methyl-7-oxo-4,5,6,7-tetrahydro-1H-pyrazolo[3,4-c]pyridine-3-carboxamide] was tested. Which pEC50 (CMV; [3]) did it give?
Answer: The pEC50 was 8.30.

Question: What about the pEC50 (CMV; [4]) of the same molecule?
Answer: Its pEC50 is 8.30.

Question: What about the pEC50 [1, 5] of the same molecule?
Answer: Its pEC50 is 7.80.

Question: How did the pIC50 (CMV-polymerase) turn out when `Cn1nc(C(=O)NCc2ccc(C#N)cc2)c2c1C(=O)N(CC1(S(=O)(=O)C3CC3)CC1)CC2` [Example 3, N-(4-cyanobenzyl)-6-((1-(cyclopropylsulfonyl)cyclopropyl)methyl)-1-methyl-7-oxo-4,5,6,7-tetrahydro-1H-pyrazolo[3,4-c]pyridine-3-carboxamide] was run?
Answer: Its pIC50 is 8.70.

Question: What about the pEC50 (CMV; [3]) of the same molecule?
Answer: Its pEC50 is 7.41.

Question: What about the pEC50 (CMV; [4]) of the same molecule?
Answer: The pEC50 was 7.41.

Question: And the pEC50 (VZV Ellen strain)?
Answer: Its pEC50 is 7.96.

Question: And the pEC50 ([1]; read-out: Cellular activity against HSV-1 (EC50))?
Answer: Its pEC50 is 7.48.

Question: How did the pIC50 (CMV-polymerase) turn out when `Cn1nc(C(=O)NCc2ccc(C#N)cc2)c2c1C(=O)N(CC1(S(=O)(=O)C(C)(C)COCCN)CC1)CC2` [Example 92, 6-((1-((1-(2-Aminoethoxy)-2-methylpropan-2-yl)sulfonyl)cyclopropyl)methyl)-N-(4-cyanobenzyl)-1-methyl-7-oxo-4,5,6,7-tetrahydro-1H-pyrazolo[3,4-c]pyridine-3-carboxamide] was run?
Answer: Its pIC50 is 9.00.

Question: And the pEC50 (CMV; [3])?
Answer: Its pEC50 is 7.92.

Question: What about the pEC50 (CMV; [4]) of the same molecule?
Answer: Its pEC50 is 7.92.

Question: And the pIC50 (HSV-polymerase)?
Answer: The pIC50 was 7.52.

Question: And the pEC50 [1, 5]?
Answer: Its pEC50 is 7.52.

Question: `CC1(S(=O)(=O)C2(CN3CCc4c(C(=O)NCc5ccc(C#N)cc5)nn(CCO)c4C3=O)CC2)CC1` [Example 217, N-(4-Cyanobenzyl)-1-(2-hydroxyethyl)-6-((1-((1-methylcyclopropyl)sulfonyl)cyclopropyl)methyl)-7-oxo-4,5,6,7-tetrahydro-1H-pyrazolo[3,4-c]pyridine-3-carboxamide] was tested. Which pIC50 (CMV-polymerase) did it give?
Answer: The pIC50 was 9.00.

Question: What about the pEC50 (CMV; [3]) of the same molecule?
Answer: The pEC50 was 7.54.

Question: And the pEC50 (CMV; [4])?
Answer: The pEC50 was 7.54.

Question: What about the pEC50 [1, 5] of the same molecule?
Answer: The pEC50 was 7.44.

Question: How did the pIC50 (CMV-polymerase) turn out when `CC(C)(CO)S(=O)(=O)C1(CN2CCc3c(C(=O)NCc4ccc(Cl)cc4)nn(CCO)c3C2=O)CC1` [Example 221, N-(4-chlorobenzyl)-6-((1-((1-hydroxy-2-methylpropan-2-yl)sulfonyl)cyclopropyl)methyl)-1-(2-hydroxyethyl)-7-oxo-4,5,6,7-tetrahydro-1H-pyrazolo[3,4-c]pyridine-3-carboxamide] was run?
Answer: The pIC50 was 9.00.

Question: What about the pEC50 (CMV; [3]) of the same molecule?
Answer: The pEC50 was 7.77.

Question: What about the pEC50 (CMV; [4]) of the same molecule?
Answer: The pEC50 was 7.77.

Question: And the pEC50 [1, 5]?
Answer: Its pEC50 is 8.00.

Question: `Cn1nc(C(=O)NCc2ccc(C#N)cc2)c2c1C(=O)N(CC1(S(=O)(=O)Nc3ccccc3C#N)CC1)CC2` [Example 248, N-(4-cyanobenzyl)-6-((1-(N-(2-cyanophenyl)sulfamoyl)cyclopropyl)methyl)-1-methyl-7-oxo-4,5,6,7-tetrahydro-1H-pyrazolo[3,4-c]pyridine-3-carboxamide] was tested. Which pEC50 [2, 6] did it give?
Answer: The pEC50 was 5.00.

Question: With `Cn1nc(C(=O)NCc2ccc(Cl)c(F)c2)c2c1C(=O)N(CC1(S(=O)(=O)C(C)(C)C(O)CO)CC1)CC2` (stereo not drawn) [Example 249, N-(4-chloro-3-fluorobenzyl)-6-((1-((3,4-dihydroxy-2-methylbutan-2-yl)sulfonyl)cyclopropyl)methyl)-1-methyl-7-oxo-4,5,6,7-tetrahydro-1H-pyrazolo[3,4-c]pyridine-3-carboxamide] as the molecule, how does the pEC50 [2, 6] read?
Answer: The pEC50 was 8.08.

Question: How did the pEC50 [2, 6] turn out when `Cn1nc(C(=O)NCc2ccc(Cl)c(F)c2)c2c1C(=O)N(CC1(S(=O)(=O)C(C)(C)[C@H](O)CO)CC1)CC2` [Example 250, (R)—N-(4-chloro-3-fluorobenzyl)-6-((1-((3,4-dihydroxy-2-methylbutan-2-yl)sulfonyl)cyclopropyl)methyl)-1-methyl-7-oxo-4,5,6,7-tetrahydro-1H-pyrazolo[3,4-c]pyridine-3-carboxamide] was run?
Answer: Its pEC50 is 7.57.

Question: How did the pEC50 [2, 6] turn out when `Cn1nc(C(=O)NCc2ccc(Cl)c(F)c2)c2c1C(=O)N(CC1(S(=O)(=O)C(C)(C)[C@@H](O)CO)CC1)CC2` [Example 251, (S)—N-(4-chloro-3-fluorobenzyl)-6-((1-((3,4-dihydroxy-2-methylbutan-2-yl)sulfonyl)cyclopropyl)methyl)-1-methyl-7-oxo-4,5,6,7-tetrahydro-1H-pyrazolo[3,4-c]pyridine-3-carboxamide] was run?
Answer: The pEC50 was 8.01.

Question: How did the pEC50 ([2]; ARPE-19 cells, MOI 0.6, 72 hours) turn out when `Cn1nc(C(=O)NCc2ccc(C#N)cc2)c2c1C(=O)N(CC1(S(=O)(=O)C(C)(C)C(O)CO)CC1)CC2` (stereo not drawn) [Example 252, N-(4-cyanobenzyl)-6-((1-((3,4-dihydroxy-2-methylbutan-2-yl)sulfonyl)cyclopropyl)methyl)-1-methyl-7-oxo-4,5,6,7-tetrahydro-1H-pyrazolo[3,4-c]pyridine-3-carboxamide] was run?
Answer: Its pEC50 is 7.66.

Question: How did the pEC50 [2, 6] turn out when `Cn1nc(C(=O)NCc2ccc(C#N)cc2)c2c1C(=O)N(CC1(S(=O)(=O)NC(C)(C)CC(N)=O)CC1)CC2` [Example 253, 6-((1-(N-(4-amino-2-methyl-4-oxobutan-2-yl)sulfamoyl)cyclopropyl)methyl)-N-(4-cyanobenzyl)-1-methyl-7-oxo-4,5,6,7-tetrahydro-1H-pyrazolo[3,4-c]pyridine-3-carboxamide] was run?
Answer: Its pEC50 is 6.41.

Question: How did the pEC50 [2, 6] turn out when `CN(C)C(=O)CCNS(=O)(=O)C1(CN2CCc3c(C(=O)NCc4ccc(C#N)cc4)nn(C)c3C2=O)CC1` [Example 254, N-(4-cyanobenzyl)-6-((1-(N-(3-(dimethylamino)-3-oxopropyl)sulfamoyl)cyclopropyl)methyl)-1-methyl-7-oxo-4,5,6,7-tetrahydro-1H-pyrazolo[3,4-c]pyridine-3-carboxamide] was run?
Answer: Its pEC50 is 6.00.

Question: With `Cn1nc(C(=O)NCc2ccc(C#N)cc2)c2c1C(=O)N(CC1(S(=O)(=O)N3C[C@H](O)[C@@H](O)C3)CC1)CC2` [Example 255, N-(4-cyanobenzyl)-6-((1-(((3S,4S)-3,4-dihydroxypyrrolidin-1-yl)sulfonyl)cyclopropyl)methyl)-1-methyl-7-oxo-4,5,6,7-tetrahydro-1H-pyrazolo[3,4-c]pyridine-3-carboxamide] as the molecule, how does the pEC50 [2, 6] read?
Answer: The pEC50 was 6.51.

Question: `Cn1nc(C(=O)NCc2ccc(C#N)cc2)c2c1C(=O)N(CC1(S(=O)(=O)NC3(c4cccnn4)CC3)CC1)CC2` [Example 256, N-(4-cyanobenzyl)-1-methyl-7-oxo-6-((1-(N-(1-(pyridazin-3-yl)cyclopropyl)sulfamoyl)cyclopropyl)methyl)-4,5,6,7-tetrahydro-1H-pyrazolo[3,4-c]pyridine-3-carboxamide] was tested. Which pEC50 [2, 6] did it give?
Answer: Its pEC50 is 5.00.

Question: With `Cn1nc(C(=O)NCc2ccc(C#N)cc2)c2c1C(=O)N(CC1(S(=O)(=O)NC(C)(CO)CO)CC1)CC2` [Example 257, N-(4-cyanobenzyl)-6-((1-(N-(1,3-dihydroxy-2-methylpropan-2-yl)sulfamoyl)cyclopropyl)methyl)-1-methyl-7-oxo-4,5,6,7-tetrahydro-1H-pyrazolo[3,4-c]pyridine-3-carboxamide] as the molecule, how does the pEC50 [2, 6] read?
Answer: The pEC50 was 6.45.

Question: With `Cn1nc(C(=O)NCc2ccc(C#N)cc2)c2c1C(=O)N(CC1(S(=O)(=O)NCc3ncccn3)CC1)CC2` [Example 258, N-(4-cyanobenzyl)-1-methyl-7-oxo-6-((1-(N-(pyrimidin-2-ylmethyl)sulfamoyl)cyclopropyl)methyl)-4,5,6,7-tetrahydro-1H-pyrazolo[3,4-c]pyridine-3-carboxamide] as the molecule, how does the pEC50 [2, 6] read?
Answer: Its pEC50 is 6.16.

Question: `CC(NS(=O)(=O)C1(CN2CCc3c(C(=O)NCc4ccc(C#N)cc4)nn(C)c3C2=O)CC1)c1cnccn1` (stereo not drawn) [Example 259, N-(4-cyanobenzyl)-1-methyl-7-oxo-6-((1-(N-(1-(pyrazin-2-yl)ethyl)sulfamoyl)cyclopropyl)methyl)-4,5,6,7-tetrahydro-1H-pyrazolo[3,4-c]pyridine-3-carboxamide] was tested. Which pEC50 [2, 6] did it give?
Answer: The pEC50 was 6.15.

Question: How did the pEC50 [2, 6] turn out when `Cn1nc(C(=O)NCc2ccc(C#N)cc2)c2c1C(=O)N(CC1(S(=O)(=O)NCc3cnccn3)CC1)CC2` [Example 260, N-(4-cyanobenzyl)-1-methyl-7-oxo-6-((1-(N-(pyrazin-2-ylmethyl)sulfamoyl)cyclopropyl)methyl)-4,5,6,7-tetrahydro-1H-pyrazolo[3,4-c]pyridine-3-carboxamide] was run?
Answer: Its pEC50 is 6.56.

Question: With `Cn1nc(C(=O)NCc2ccc(C#N)cc2)c2c1C(=O)N(CC1(S(=O)(=O)NC(CO)(CO)CO)CC1)CC2` [Example 261, N-(4-cyanobenzyl)-6-((1-(N-(1,3-dihydroxy-2-(hydroxymethyl)propan-2-yl)sulfamoyl)cyclopropyl)methyl)-1-methyl-7-oxo-4,5,6,7-tetrahydro-1H-pyrazolo[3,4-c]pyridine-3-carboxamide] as the molecule, how does the pEC50 [2, 6] read?
Answer: The pEC50 was 5.59.

Question: With `Cn1nc(C(=O)NCc2ccc(C#N)cc2)c2c1C(=O)N(CC1(S(N)(=O)=O)CC1)CC2` [Example 262, N-(4-cyanobenzyl)-1-methyl-7-oxo-6-((1-sulfamoylcyclopropyl)methyl)-4,5,6,7-tetrahydro-1H-pyrazolo[3,4-c]pyridine-3-carboxamide] as the molecule, how does the pEC50 [2, 6] read?
Answer: The pEC50 was 6.60.
